Results taken from PMC12661054, “The CIP2A-TOPBP1 axis facilitates mitotic DNA repair via MiDAS and MMEJ” (Nature Communications, 2025).

Tested on: eGFP-SLX4 and MUS81
Assay: Chromatin residency of eGFP-SLX4 and MUS81 (chromatin-fraction co-IP)
Type: cell-based, human
Conditions: acute CDK1 inhibition, eGFP-SLX4 Co-IP from mitotic chromatin
Method: Cell pellets stored at −80 °C were thawed on ice, followed by addition of ten volumes to 1 NIB-250 (15 mM Tris-HCL (pH 7.5), 60 mM KCl, 15 mM NaCl, 5 mM MgCl2, 1 mM CaCl2, 250 mM sucrose) containing 1 mM DTT, 1x cOmplete, EDTA-free Protease Inhibitor +0.3% NP. The cells were mixed by pipetting gently and then incubated on ice for 10 min. The cell pellet was then centrifuged at 400–600 x g for 5 min at 4 °C. The supernatant was transferred to a separate tube (cytoplasmic fraction). The nuclei pellet was then resuspended in ten volumes of 10:1 NIB-250 without detergent containing 1 mM DTT and 1x cOmplete, EDTA-free Protease Inhibitor. The nuclei were then pelleted by centrifugation at 400–600 x g for 5 min at 4 °C and the supernatant was discarded. The pellet was then resuspended 7 volumes relative to pellet volume of hypotonic buffer (3 mM EDTA, 0.2 mM EGTA containing 1 mM DTT and 1x cOmplete, EDTA-free Protease Inhibitor) and incubated on ice for 30 min, vortexing every 5 min. The insoluble chromatin fraction was collected by centrifugation for 4 min at 1700 x g. The supernatant, was retained, containing the nucleoplasm fraction. The chromatin pellet was washed with hypotonic buffer containing 1 mM DTT and protease inhibitors and the above centrifugation was repeated. The supernatant was discarded and the pellet retained and used as starting material for immunoprecipitation experiments. […]

O=C1NC(=NCc2cccs2)S/C1=C\c1ccc2ncccc2c1 [CDK1i]
chromatin residency of eGFP-SLX4 and MUS81: markedly impaired chromatin residency of eGFP-SLX4 and MUS81
